Laboratory results: the NIST ThermoML archive (doi:10.1021/je800224k)

Details: Liquid

CCCCCCn1cc[n+](C)c1.F[P-](F)(F)(F)(F)F [1-hexyl-3-methylimidazolium hexafluorophosphate]
Details	mass density [kg/m3]
293.15 K, 101.33 kPa, Vibrating tube method	1297
312.9 K, 10000 kPa, Bellows volumetry	1287
312.9 K, 20000 kPa, Bellows volumetry	1292
312.9 K, 30000 kPa, Bellows volumetry	1298
312.9 K, 40000 kPa, Bellows volumetry	1303
312.9 K, 50000 kPa, Bellows volumetry	1308
312.9 K, 60000 kPa, Bellows volumetry	1313
312.9 K, 70000 kPa, Bellows volumetry	1318
312.9 K, 80000 kPa, Bellows volumetry	1322
312.9 K, 90000 kPa, Bellows volumetry	1327
312.9 K, 100000 kPa, Bellows volumetry	1331
312.9 K, 110000 kPa, Bellows volumetry	1335
312.9 K, 120000 kPa, Bellows volumetry	1339
312.9 K, 130000 kPa, Bellows volumetry	1343
312.9 K, 140000 kPa, Bellows volumetry	1347
312.9 K, 150000 kPa, Bellows volumetry	1351
312.9 K, 160000 kPa, Bellows volumetry	1355
312.9 K, 170000 kPa, Bellows volumetry	1358
312.9 K, 180000 kPa, Bellows volumetry	1362
312.9 K, 190000 kPa, Bellows volumetry	1366
312.9 K, 200000 kPa, Bellows volumetry	1369
313.15 K, 101.33 kPa, Vibrating tube method	1280.7
332.6 K, 10000 kPa, Bellows volumetry	1271
332.6 K, 20000 kPa, Bellows volumetry	1277
332.6 K, 30000 kPa, Bellows volumetry	1283
332.6 K, 40000 kPa, Bellows volumetry	1289
332.6 K, 50000 kPa, Bellows volumetry	1294
332.6 K, 60000 kPa, Bellows volumetry	1299
332.6 K, 70000 kPa, Bellows volumetry	1304
332.6 K, 80000 kPa, Bellows volumetry	1309
332.6 K, 90000 kPa, Bellows volumetry	1313
332.6 K, 100000 kPa, Bellows volumetry	1318
332.6 K, 110000 kPa, Bellows volumetry	1322
332.6 K, 120000 kPa, Bellows volumetry	1326
332.6 K, 130000 kPa, Bellows volumetry	1330
332.6 K, 140000 kPa, Bellows volumetry	1334
332.6 K, 150000 kPa, Bellows volumetry	1338
332.6 K, 160000 kPa, Bellows volumetry	1342
332.6 K, 170000 kPa, Bellows volumetry	1346
332.6 K, 180000 kPa, Bellows volumetry	1350
332.6 K, 190000 kPa, Bellows volumetry	1353
332.6 K, 200000 kPa, Bellows volumetry	1357
333.15 K, 101.33 kPa, Vibrating tube method	1265.1
352.7 K, 10000 kPa, Bellows volumetry	1256
352.7 K, 20000 kPa, Bellows volumetry	1262
352.7 K, 30000 kPa, Bellows volumetry	1268
352.7 K, 40000 kPa, Bellows volumetry	1274
352.7 K, 50000 kPa, Bellows volumetry	1280
352.7 K, 60000 kPa, Bellows volumetry	1285
352.7 K, 70000 kPa, Bellows volumetry	1290
352.7 K, 80000 kPa, Bellows volumetry	1295
352.7 K, 90000 kPa, Bellows volumetry	1300
352.7 K, 100000 kPa, Bellows volumetry	1305
352.7 K, 110000 kPa, Bellows volumetry	1309
352.7 K, 120000 kPa, Bellows volumetry	1314
352.7 K, 130000 kPa, Bellows volumetry	1318
352.7 K, 140000 kPa, Bellows volumetry	1322
352.7 K, 150000 kPa, Bellows volumetry	1326
352.7 K, 160000 kPa, Bellows volumetry	1330
352.7 K, 170000 kPa, Bellows volumetry	1334
352.7 K, 180000 kPa, Bellows volumetry	1338
352.7 K, 190000 kPa, Bellows volumetry	1342
352.7 K, 200000 kPa, Bellows volumetry	1345
353.15 K, 101.33 kPa, Vibrating tube method	1249.8
372.9 K, 10000 kPa, Bellows volumetry	1241
372.9 K, 20000 kPa, Bellows volumetry	1248
372.9 K, 30000 kPa, Bellows volumetry	1254
372.9 K, 40000 kPa, Bellows volumetry	1260
372.9 K, 50000 kPa, Bellows volumetry	1266
372.9 K, 60000 kPa, Bellows volumetry	1271
372.9 K, 70000 kPa, Bellows volumetry	1277
372.9 K, 80000 kPa, Bellows volumetry	1282
372.9 K, 90000 kPa, Bellows volumetry	1287
372.9 K, 100000 kPa, Bellows volumetry	1292
372.9 K, 110000 kPa, Bellows volumetry	1296
372.9 K, 120000 kPa, Bellows volumetry	1301
372.9 K, 130000 kPa, Bellows volumetry	1306
372.9 K, 140000 kPa, Bellows volumetry	1310
372.9 K, 150000 kPa, Bellows volumetry	1314
372.9 K, 160000 kPa, Bellows volumetry	1318
372.9 K, 170000 kPa, Bellows volumetry	1322
372.9 K, 180000 kPa, Bellows volumetry	1326
372.9 K, 190000 kPa, Bellows volumetry	1330
372.9 K, 200000 kPa, Bellows volumetry	1334
393 K, 10000 kPa, Bellows volumetry	1226
393 K, 20000 kPa, Bellows volumetry	1233
393 K, 30000 kPa, Bellows volumetry	1240
393 K, 40000 kPa, Bellows volumetry	1246
393 K, 50000 kPa, Bellows volumetry	1252
393 K, 60000 kPa, Bellows volumetry	1258
393 K, 70000 kPa, Bellows volumetry	1264
393 K, 80000 kPa, Bellows volumetry	1269
393 K, 90000 kPa, Bellows volumetry	1274
393 K, 100000 kPa, Bellows volumetry	1279
393 K, 110000 kPa, Bellows volumetry	1284
393 K, 120000 kPa, Bellows volumetry	1289
393 K, 130000 kPa, Bellows volumetry	1293
393 K, 140000 kPa, Bellows volumetry	1298
393 K, 150000 kPa, Bellows volumetry	1302
393 K, 160000 kPa, Bellows volumetry	1306
393 K, 170000 kPa, Bellows volumetry	1310
393 K, 180000 kPa, Bellows volumetry	1314
393 K, 190000 kPa, Bellows volumetry	1318
393 K, 200000 kPa, Bellows volumetry	1322
412.9 K, 10000 kPa, Bellows volumetry	1211
412.9 K, 20000 kPa, Bellows volumetry	1219
412.9 K, 30000 kPa, Bellows volumetry	1226
412.9 K, 40000 kPa, Bellows volumetry	1232
412.9 K, 50000 kPa, Bellows volumetry	1239
412.9 K, 60000 kPa, Bellows volumetry	1245
412.9 K, 70000 kPa, Bellows volumetry	1251
412.9 K, 80000 kPa, Bellows volumetry	1256
412.9 K, 90000 kPa, Bellows volumetry	1262
412.9 K, 100000 kPa, Bellows volumetry	1267
412.9 K, 110000 kPa, Bellows volumetry	1272
412.9 K, 120000 kPa, Bellows volumetry	1277
412.9 K, 130000 kPa, Bellows volumetry	1282
412.9 K, 140000 kPa, Bellows volumetry	1286
412.9 K, 150000 kPa, Bellows volumetry	1291
412.9 K, 160000 kPa, Bellows volumetry	1295
412.9 K, 170000 kPa, Bellows volumetry	1299
412.9 K, 180000 kPa, Bellows volumetry	1303
412.9 K, 190000 kPa, Bellows volumetry	1307
412.9 K, 200000 kPa, Bellows volumetry	1311
432.8 K, 10000 kPa, Bellows volumetry	1197
432.8 K, 20000 kPa, Bellows volumetry	1205
432.8 K, 30000 kPa, Bellows volumetry	1212
432.8 K, 40000 kPa, Bellows volumetry	1219
432.8 K, 50000 kPa, Bellows volumetry	1226
432.8 K, 60000 kPa, Bellows volumetry	1232
432.8 K, 70000 kPa, Bellows volumetry	1238
432.8 K, 80000 kPa, Bellows volumetry	1244
432.8 K, 90000 kPa, Bellows volumetry	1250
432.8 K, 100000 kPa, Bellows volumetry	1255
432.8 K, 110000 kPa, Bellows volumetry	1260
432.8 K, 120000 kPa, Bellows volumetry	1265
432.8 K, 130000 kPa, Bellows volumetry	1270
432.8 K, 140000 kPa, Bellows volumetry	1275
432.8 K, 150000 kPa, Bellows volumetry	1279
432.8 K, 160000 kPa, Bellows volumetry	1284
432.8 K, 170000 kPa, Bellows volumetry	1288
432.8 K, 180000 kPa, Bellows volumetry	1292
432.8 K, 190000 kPa, Bellows volumetry	1297
432.8 K, 200000 kPa, Bellows volumetry	1301
452.5 K, 10000 kPa, Bellows volumetry	1183
452.5 K, 20000 kPa, Bellows volumetry	1191
452.5 K, 30000 kPa, Bellows volumetry	1199
452.5 K, 40000 kPa, Bellows volumetry	1206
452.5 K, 50000 kPa, Bellows volumetry	1213
452.5 K, 60000 kPa, Bellows volumetry	1219
452.5 K, 70000 kPa, Bellows volumetry	1226
452.5 K, 80000 kPa, Bellows volumetry	1232
452.5 K, 90000 kPa, Bellows volumetry	1237
452.5 K, 100000 kPa, Bellows volumetry	1243
452.5 K, 110000 kPa, Bellows volumetry	1248
452.5 K, 120000 kPa, Bellows volumetry	1254
452.5 K, 130000 kPa, Bellows volumetry	1259
452.5 K, 140000 kPa, Bellows volumetry	1263
452.5 K, 150000 kPa, Bellows volumetry	1268
452.5 K, 160000 kPa, Bellows volumetry	1273
452.5 K, 170000 kPa, Bellows volumetry	1277
452.5 K, 180000 kPa, Bellows volumetry	1282
452.5 K, 190000 kPa, Bellows volumetry	1286
452.5 K, 200000 kPa, Bellows volumetry	1290
472.3 K, 10000 kPa, Bellows volumetry	1169
472.3 K, 20000 kPa, Bellows volumetry	1177
472.3 K, 30000 kPa, Bellows volumetry	1185
472.3 K, 40000 kPa, Bellows volumetry	1193
472.3 K, 50000 kPa, Bellows volumetry	1200
472.3 K, 60000 kPa, Bellows volumetry	1207
472.3 K, 70000 kPa, Bellows volumetry	1213
472.3 K, 80000 kPa, Bellows volumetry	1220
472.3 K, 90000 kPa, Bellows volumetry	1226
472.3 K, 100000 kPa, Bellows volumetry	1231
472.3 K, 110000 kPa, Bellows volumetry	1237
472.3 K, 120000 kPa, Bellows volumetry	1242
472.3 K, 130000 kPa, Bellows volumetry	1247
472.3 K, 140000 kPa, Bellows volumetry	1253
472.3 K, 150000 kPa, Bellows volumetry	1257
472.3 K, 160000 kPa, Bellows volumetry	1262
472.3 K, 170000 kPa, Bellows volumetry	1267
472.3 K, 180000 kPa, Bellows volumetry	1271
472.3 K, 190000 kPa, Bellows volumetry	1276
472.3 K, 200000 kPa, Bellows volumetry	1280
